SMILES strings stand for the structures.

The values below come from ChEMBL document CHEMBL1131768, “Orally bioavailable nonpeptide vitronectin receptor antagonists containing 2-aminopyridine arginine mimetics” (Bioorg Med Chem Lett, 1999).

The nature of data set [1]: in vivo. The conditions noted are these: rat, iv.
Data set [2] is described as follows: in vivo. The settings on record: dog, iv.
The nature of data set [3]: in vivo. The settings on record: dog, po.
Data set [4] in a line: in vivo. The conditions noted are these: rat, po.
The nature of data set [5]: in vivo. The settings on record: rat, iv. This is another data set of the same source.
Data set [6] is described as follows: in vivo. The settings on record: dog, iv. This is another data set of the same source.

On to `CN1Cc2cc(C(=O)NCc3cccc(N)n3)ccc2N[C@@H](CC(=O)O)C1=O`, for which the clearance – broadly, a measure of how efficiently the substance is removed, as volume per time – in data set [1] is 63 mL/min/kg; in data set [2], 7.8 mL/min/kg. Besides, the bioavailability (usually the share of a dose that reaches the circulation, judged against a reference dose that is usually intravenous) in data set [3] amounted to 10%; in data set [4], 13%. Also, the values for the half-life in data set [5] and in data set [6] were 45 min and 47 min, respectively.
